# Data reported in ChEMBL document CHEMBL1201862, “PubChem BioAssay data set” (2004).
#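 Briefly, cells in 96-well plates were exposed to five compound concentrations for 48 h, and endpoints were estimated by linear interpolation. The concentration for 50% growth inhibition is given as GI50.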 Calls of active or inactive are those of the source. No stated cut-off is given here; in the data, active = GI50 up to about 1.1 µM and inactive = higher.
# Tests used:
# Experiment in all cases: NCI-60 cell line screen, 48 h
# ACHN = test system: ACHN
# CCRF-CEM = test system: CCRF-CEM
# HCT-116 = test system: HCT-116
# HCT-15 = test system: HCT-15
# K562 = test system: K562
# LOX IMVI = test system: LOX IMVI
# Malme-3M = test system: Malme-3M
# OVCAR-3 = test system: OVCAR-3
# OVCAR-5 = test system: OVCAR-5
# RXF 393 = test system: RXF 393
# SF-268 = test system: SF-268
# SF-295 = test system: SF-295
# SK-MEL-2 = test system: SK-MEL-2
# UACC-257 = test system: UACC-257
# UACC-62 = test system: UACC-62
# UO-31 = test system: UO-31
# CAKI-1 = test system: CAKI-1
SMILES,GI50 (ACHN),GI50 (CCRF-CEM),GI50 (HCT-116),GI50 (HCT-15),GI50 (K562),GI50 (LOX IMVI),GI50 (Malme-3M),GI50 (OVCAR-3),GI50 (OVCAR-5),GI50 (RXF 393),GI50 (SF-268),GI50 (SF-295),GI50 (SK-MEL-2),GI50 (UACC-257),GI50 (UACC-62),GI50 (UO-31),GI50 (CAKI-1)
CCC(Oc1ccc(OC)c2ccccc(=O)c12)C(=O)O (centres undefined),> 100 µM (inactive),> 100 µM (inactive),> 100 µM (inactive),> 100 µM,> 100 µM (inactive),> 100 µM (inactive),> 100 µM (inactive),> 100 µM (inactive),> 100 µM (inactive),> 100 µM (inactive),> 100 µM (inactive),> 100 µM (inactive),> 100 µM (inactive),> 100 µM (inactive),> 100 µM (inactive),> 100 µM (inactive),
COc1ccc(OCC(=O)O)c(C(=O)CCC(=O)O)c1,> 100 µM (inactive),> 100 µM (inactive),> 100 µM (inactive),> 100 µM,> 100 µM (inactive),> 100 µM (inactive),> 100 µM (inactive),> 10 µM (inactive),> 100 µM (inactive),> 100 µM (inactive),> 100 µM (inactive),> 100 µM (inactive),> 100 µM (inactive),> 100 µM (inactive),> 10 µM (inactive),> 100 µM (inactive),
COc1ccc(/C=C2/C(=O)N(C(=O)c3ccc(Cl)cc3)N=C2C)cc1OC,> 100 µM (inactive),> 100 µM (inactive),> 100 µM (inactive),> 100 µM,> 100 µM (inactive),> 100 µM (inactive),> 100 µM (inactive),> 100 µM (inactive),> 100 µM (inactive),,> 100 µM (inactive),> 100 µM (inactive),> 100 µM (inactive),> 100 µM (inactive),> 100 µM (inactive),> 100 µM (inactive),> 100 µM (inactive)
C=CCC1(C(=O)OC(C)(C)C)C(OC)=C(C(=O)OC(C)(C)C)C2C1C(C(=O)OC(C)(C)C)=C(OC)C2(CC=C)C(=O)OC(C)(C)C (centres undefined),> 100 µM (inactive),> 100 µM (inactive),,> 100 µM,> 100 µM (inactive),,> 10 µM (inactive),> 100 µM (inactive),> 100 µM (inactive),> 100 µM (inactive),> 100 µM (inactive),> 100 µM (inactive),> 100 µM (inactive),> 100 µM (inactive),> 100 µM (inactive),> 100 µM (inactive),
Cc1ccc(S(=O)(=O)OC2CC=CC2)cc1,> 100 µM (inactive),> 100 µM (inactive),> 100 µM (inactive),> 100 µM,> 100 µM (inactive),> 100 µM (inactive),> 100 µM (inactive),> 100 µM (inactive),> 100 µM (inactive),> 100 µM (inactive),,> 100 µM (inactive),> 100 µM (inactive),> 100 µM (inactive),> 100 µM (inactive),> 100 µM (inactive),> 100 µM (inactive)
CC(C)c1cc2c(O)c(c1)Cc1cc(C(C)C)cc(c1O)Cc1cc(C(C)C)cc(c1O)Cc1cc(C(C)C)cc(c1O)C2,,> 100 µM (inactive),> 100 µM (inactive),> 100 µM,> 100 µM (inactive),> 100 µM (inactive),> 100 µM (inactive),> 100 µM (inactive),> 100 µM (inactive),> 100 µM (inactive),> 100 µM (inactive),> 100 µM (inactive),> 100 µM (inactive),> 100 µM (inactive),> 100 µM (inactive),> 100 µM (inactive),> 100 µM (inactive)
CC(=O)Nc1cc(N(CCOS(C)(=O)=O)CCOS(C)(=O)=O)ccc1N=O,> 100 µM (inactive),> 100 µM (inactive),> 100 µM (inactive),> 100 µM,> 100 µM (inactive),,> 100 µM (inactive),> 100 µM (inactive),> 100 µM (inactive),,> 100 µM (inactive),> 100 µM (inactive),> 100 µM (inactive),> 100 µM (inactive),> 100 µM (inactive),> 100 µM (inactive),> 100 µM (inactive)
CC(C)C1(O)C(c2ccccc2)=C(c2ccccc2)C(c2ccccc2)=C1c1ccccc1,,5.09 µM (inactive),3.61 µM (inactive),5.22 µM,3.52 µM (inactive),6.59 µM (inactive),10.4 µM (inactive),4.71 µM (inactive),17.5 µM (inactive),2.82 µM (inactive),4.49 µM (inactive),12.6 µM (inactive),5.33 µM (inactive),5.36 µM (inactive),7.59 µM (inactive),2.46 µM (inactive),11.7 µM (inactive)
CCN(CC)CCN1C(=O)CC2[C@@H]3CCc4cc(OC)ccc4C3CC[C@]2(C)C1=O (some centres undefined),96.4 µM (inactive),18.8 µM (inactive),> 10 µM (inactive),,15.2 µM (inactive),,18.5 µM (inactive),56.8 µM (inactive),32.5 µM (inactive),30.5 µM (inactive),38.5 µM (inactive),18.4 µM (inactive),20.9 µM (inactive),14.9 µM (inactive),19.3 µM (inactive),17.4 µM (inactive),
O=C(CCn1[nH]c(=O)c(Cl)c(Cl)c1=O)NO,> 100 µM (inactive),> 100 µM (inactive),,> 100 µM,> 100 µM (inactive),> 100 µM (inactive),> 100 µM (inactive),> 100 µM (inactive),> 100 µM (inactive),> 100 µM (inactive),> 100 µM (inactive),> 100 µM (inactive),> 100 µM (inactive),> 100 µM (inactive),> 100 µM (inactive),> 100 µM (inactive),> 100 µM (inactive)
O=C1Nc2ccccc2C1(O)C/C(=N/O)c1ccc2ccccc2c1 (centres undefined),> 100 µM (inactive),47.2 µM (inactive),> 100 µM (inactive),> 100 µM,72.6 µM (inactive),22.3 µM (inactive),> 100 µM (inactive),> 100 µM (inactive),> 100 µM (inactive),58.9 µM (inactive),> 100 µM (inactive),> 100 µM (inactive),> 100 µM (inactive),> 100 µM (inactive),,75.9 µM (inactive),
COc1ccccc1N1C(=O)/C(=C/c2ccc(N(CCC#N)CCC#N)cc2C)N=C1c1cc([N+](=O)[O-])ccc1Cl,> 100 µM (inactive),> 100 µM (inactive),> 100 µM (inactive),> 100 µM,> 100 µM (inactive),,> 100 µM (inactive),> 100 µM (inactive),> 100 µM (inactive),,> 100 µM (inactive),> 100 µM (inactive),> 100 µM (inactive),> 100 µM (inactive),,> 100 µM (inactive),> 100 µM (inactive)
CCc1cc(CCC(=O)Nc2ccccc2[N+](=O)[O-])nc(S)n1,> 100 µM (inactive),> 100 µM (inactive),> 100 µM (inactive),> 100 µM,> 100 µM (inactive),> 100 µM (inactive),,> 100 µM (inactive),> 100 µM (inactive),> 100 µM (inactive),> 100 µM (inactive),> 100 µM (inactive),> 100 µM (inactive),> 100 µM (inactive),> 100 µM (inactive),> 100 µM (inactive),
